Experiment [1] concerns the target T1, endogenous wild-type K-Ras protein (Mus musculus, UniProt P32883).
T1 construct: an endogenous wild-type K-Ras protein and wild-type H-Ras protein; from tissue; host or cells: mouse pancreas and colon
As to the kind of experiment: Degradation of endogenous wild-type K-Ras protein in mouse pancreas and colorectal tissue, Western blot analysis. The class given is in vivo. The settings on record: C57BL/6J mice, intraperitoneal, TUS-007 40 or 80 mg/kg, Ras-SOS 80 mg/kg, 48 hours; pancreas and colon; FIG. 8. The protocol:
(§1) In Example 9, in a mouse individual to which TUS-007 had been administered, the degradation (knockdown) of an endogenous wild-type K-Ras protein and wild-type H-Ras protein was evaluated by Western blot analysis.
(§2) TUS-007 was dissolved in DMSO, and then dissolved in corn oil so that the concentration of DMSO was 10 vol %, and then intraperitoneally administered to C57BL/6J wild-type mice (8 to 9 weeks old, male) (CLEA Japan, Inc.) in an amount of 40 mg/kg body weight or 80 mg/kg body weight (n=3 to 4). Furthermore, in addition to a group in which TUS-007 was administered, a group in which Ras-SOS had been administered in a dose of 80 mg/kg body weight was prepared. As a control, an injection carrier (corn oil containing 10 vol % DMSO) was used. The mice were kept under an environment of ad libitum access to food and water. The mice were dissected under deep anesthesia 48 hours after administration. The pancreas and colon were excised, and flash frozen in liquid nitrogen.
(§3) The frozen pancreas and colon were each triturated, and then TKM tissue lysis buffer (50 mM triethanolamine (pH 7.8), 50 mM KCl, 5 mM MgCl2, 0.25 M sucrose, 1 mM PMSF, Protein Inhibitors Cocktail-EDTA free (Nacalai Tesque, Inc.), 1 mM DTT, and a recombinant RNase inhibitor (0.2 U/μL, Takara Bio) were added, and subjected to centrifugation (at 13800 rpm×30 minutes, 4° C.), and the supernatants (pancreatic tissue extract and colorectal tissue extract) were collected. The concentration of the extracted proteins was quantified with a spectrophotometer.
(§4) Each tissue extract collected was subjected to Western blot analysis. […]
(§5) After electrophoresis, proteins were transferred to a PVDF membrane (Immobion™-P, Millipore) under conditions of 200 mA and 90 minutes using a tank-type blotting device and a transfer buffer (25 mM Tris-HCl, 195 mM glycine, 0.01% SDS, 15% methanol). […] Subsequently, the membrane was treated with a chemiluminescence reagent Immobilon™ Western (Millipore), and then chemiluminescence was detected using a lumino image analyzer LAS-3000 (FUJIFILM Corporation).

The subject of a further experiment is K-Ras protein. The settings on record: known from Sun, Q. et al.; cited from earlier work.
The subject of experiment [2] is interaction between the Ras protein and the SOS protein. To be noted: known from Sun, Q. et al.; cited from earlier work.
The subject of the next experiment is SW1990 cells. The experiment can be described thus: Apoptosis induction in SW1990 cells, FACS analysis (Annexin V/PI). To be noted: SW1990 cells expressing G12D mutant K-Ras, 24 hours after addition; FIGS. 6B, 7B. The class given is cell-based, human. The protocol:
(§6) In Example 7, apoptosis induction in a case where TUS-007, Ras-SOS, or Ras-SOS-NH2 was added to HeLa cells or SW1990 cells (human pancreatic cancer cells) had been added was evaluated by the FACS analysis. It is noted that in HeLa cells, the wild-type K-Ras protein (K-Ras-WT) is expressed, and in SW1990 cells, the G12D mutant K-Ras protein (K-Ras-G12D) is expressed.
(§7) HeLa cells or SW1990 cells were seeded in a 24-well plate at a cell density of 8×10^4 cells/well, and then cultured under conditions of 37° C. and 5 vol % CO2 for 16 hours.
(§8) After 16 hours from cell seeding, TUS-007, Ras-SOS, or Ras-SOS-NH2 were added to HeLa cells or SW1990 cells as follows. As a medium, a serum-free medium (37° C.) in which 1 mass % L-glutamine solution (Sigma-Aldrich) was added to D-MEM (high D-glucose, phenol red, sodium pyruvate (Wako Pure Chemical Industries, Ltd.)) was used. It is noted that the L-glutamine solution was added immediately before use. A DMSO solution containing TUS-007, Ras-SOS, or Ras-SOS-NH2 was mixed with the medium so that the concentration of DMSO was 1 vol %, and added to each well at 500 μL/well, and cultured under conditions of 37° C. and 5 vol % CO2. As a control, DMSO was used.
(§9) The medium was removed 24 hours after addition of TUS-007, Ras-SOS, or Ras-SOS-NH2, and then PBS was added to wash the cells. After removing PBS, trypsin (0.25 w/v % trypsin-1 mmol/L EDTA⋅4 Na solution with phenol red) (Wako Pure Chemical Industries, Ltd.) at 37° C. was added to each well at 200 μL/well, and cultured under conditions of 37° C. and 5 vol % CO2 for 1 minute. […]
(§10) A BD FACSCanto™ II (BD Biosciences) was used for flow cytometry. […] The proportion of Annexin V-positive and PI-negative cells was calculated using an analysis software FlowJo™ (TOMY Digital Biology Co., Ltd.), and the proportion was defined as a proportion of apoptosis cells.
(§11) In Example 8, apoptosis induction in a case where TUS-007, Ras-SOS-NH2, or erlotinib as an anticancer agent (EGFR inhibitor) was added to HeLa cells or SW1990 cells was evaluated by FACS analysis as in Example 7.

Another experiment has as its system HeLa cells. The experiment can be described thus: Apoptosis induction in HeLa cells, FACS analysis (Annexin V/PI). The class given is cell-based, human. To be noted: HeLa cells expressing wild-type K-Ras, 24 hours after addition; FIGS. 6A, 7A. How it is done: as §6, §7, §8, §9, §10, §11
Experiment [3] concerns the target T2, endogenous wild-type H-Ras protein (Mus musculus, UniProt Q61411).
T2 construct: an endogenous wild-type K-Ras protein and wild-type H-Ras protein; from tissue; host or cells: mouse pancreas and colon
The experiment can be described thus: Degradation of endogenous wild-type H-Ras protein in mouse pancreas and colorectal tissue, Western blot analysis. To be noted: C57BL/6J mice, intraperitoneal, TUS-007 40 or 80 mg/kg, Ras-SOS 80 mg/kg, 48 hours; pancreas and colon; FIG. 8. Type of experiment: in vivo. How it is done: as §1, §2, §3, §4, §5

Experiment [4] concerns the target T3, catalytic subunit β1 of a proteasome (Homo sapiens, UniProt P28072).
T3 construct: purchased Bioscience (so in the source) 20S Proteasome StressXpress Assay Kit Gold
To be noted: literature report, consistent with FIG. 13A; cited from earlier work.

For experiment [5], the target named is T4, catalytic subunit β5 of the proteasome (Homo sapiens, UniProt P28074).
T4 construct: purchased Bioscience (so in the source) 20S Proteasome StressXpress Assay Kit Gold
The experiment can be described thus: Proteasome inhibitory activity, 20S proteasome β5 (chymotrypsin-like activity). The class given is biochemical. The settings on record: 20S proteasome assay kit, AMC fluorescence substrate; FIGS. 10C, 13C. The protocol:
(§12) In Reference Example 2, the proteasome inhibitory activity of TMP-CANDDY_DMT and the affinity of TMP-CANDDY_DMT with a proteasome were evaluated. As a positive control, MG-132 as a proteasome inhibitor was used.
(§13) For evaluation, 20S Proteasome StressXpress™ Assay Kit Gold (Bioscience) was used. AMC was measured by using Multi-Detection Microplate Reader (Synergy HT, BIO-TEK). The AMC was produced by cleaving the C-terminus of an AMC-binding proteasome fluorescence substrate specific to β subunits of a 20S proteasome, including β5 (chymotrypsin-like activity), β2 (trypsin-like activity), and β1 (caspase-like activity). The measuring wavelengths were 360 nm for excitation light (Ex.), and 460 nm for fluorescence (Em.).
(§14) In Reference Example 6, as in Reference Example 2, a proteasome inhibitory activity of TMP-CANDDY_ALLN and an affinity of TMP-CANDDY_ALLN with a proteasome were evaluated.

The target of experiment [6] is T5, catalytic subunit β2 of the proteasome (Homo sapiens, UniProt Q99436).
T5 construct: purchased Bioscience (so in the source) 20S Proteasome StressXpress Assay Kit Gold
The experiment can be described thus: Proteasome inhibitory activity, 20S proteasome β2 (trypsin-like activity). Type of experiment: biochemical. The settings on record: 20S proteasome assay kit, AMC fluorescence substrate; FIGS. 10B, 13B. How it is done: as §12, §13, §14

For experiment [7], the target named is T3, catalytic subunit β1 of a proteasome. The experiment can be described thus: Proteasome inhibitory activity, 20S proteasome β1 (caspase-like activity). The class given is biochemical. The settings on record: 20S proteasome assay kit, AMC fluorescence substrate; FIGS. 10A, 13A. The protocol:
as §12, §13, §14

The target of experiment [8] is T6, ecDHFR protein (Escherichia coli, UniProt P0ABQ4).
T6 construct: expressed in transfected cells; host or cells: HeLa
The class given is cell-based, human. To be noted: HeLa cells, 24 hours after addition, vs control (DMSO); FIGS. 11, 14.

Experiment [9] addresses T6, ecDHFR protein. The class given is cell-based, human. To be noted: HeLa cells, FIGS. 12A, 12B.

Where a SMILES comes first, the peptide text is derived from it. [ ]: non-standard residue; d: D form. Nle = CCCC[C@H](N)C(=O)O

As for `CC[C@H](C)[C@H](N)C(=O)Nc1ccc2[nH]c(Cc3c[nH]c4ccccc34)nc2c1` [Ras-SOS], the “amount of the endogenous wild-type K-Ras protein in mouse tissues (Western blot)” value in [1] is “the amount of the wild-type K-Ras protein and the wild-type H-Ras protein was not reduced”. Moreover, the “binding to K-Ras protein (wild-type, G12D mutant, G12V mutant)” value in the experiment with K-Ras protein is “bound to not only a wild-type K-Ras protein but also a G12D mutant and a G12V mutant K-Ras protein”. The “inhibition of the interaction between the Ras protein and the SOS protein” value in [2] was “inhibit the interaction between the Ras protein and the SOS protein”. Besides, the “apoptosis induction (proportion of Annexin V-positive and PI-negative cells)” value in the experiment on SW1990 cells is recorded as “the effect of the apoptosis induction by Ras-SOS was largely reduced”; with HeLa cells it was “apoptosis was induced in a concentration-dependent manner”. Moreover, the “amount of the endogenous wild-type H-Ras protein in mouse tissues (Western blot)” value in experiment [3] is “the amount of the wild-type K-Ras protein and the wild-type H-Ras protein was not reduced”.
`CCCC[C@@H](C=O)NC(=O)[C@H](CC(C)C)NC(=O)[C@H](CC(C)C)NC(C)=O` [ALLN] (Ac-Leu-Leu-[Nle]-aldehyde): the “inhibition of proteasome β1 as reported (Kaiser, M. et al.)” value in [4] is “β1 was not inhibited by ALLN”.
With `CCCC[C@H](NC(=O)[C@H](CC(C)C)NC(=O)[C@H](CC(C)C)NC(C)=O)C(=O)NCCCCCCNC(=O)COc1c(OC)cc(Cc2cnc(N)nc2N)cc1OC` [TMP-CANDDY_ALLN], the “inhibitory activity against proteasome β5 (chymotrypsin-like activity)” value in experiment [5] was “the inhibitory activity was weakened”. For the same compound, the “inhibitory activity against proteasome β2 (trypsin-like activity)” value in experiment [6] was “the inhibitory activity was weakened”. For the same compound, in experiment [7], the “inhibitory activity against proteasome β1 (caspase-like activity)” value is “increased against any of β1, β2, and β5 in a concentration dependent manner”. Further, the “degradation (knockdown) of the ecDHFR protein (shift of GFP/DsRed ratio graph)” value at ecDHFR protein [8] is on record as “degradation of the ecDHFR protein was induced”.
As to `C#Cc1cccc(Nc2ncnc3cc(OCCOC)c(OCCOC)cc23)c1` [erlotinib], the “apoptosis induction (proportion of Annexin V-positive and PI-negative cells)” value in the experiment on SW1990 cells is “the effect of the apoptosis induction by erlotinib was largely reduced”; in the experiment on HeLa cells, “apoptosis was induced in a concentration-dependent manner”.
As for `COc1nc(NCCCCCCNC(=O)COc2c(OC)cc(Cc3cnc(N)nc3N)cc2OC)nc(OC)n1` [TMP-CANDDY_DMT], the “amount of the ecDHFR protein (Western blot)” value at ecDHFR protein [9] (24 hours after addition, cycloheximide 50 μg/mL at 12 hours) is reported as “the amount of the ecDHFR protein was reduced”. Further, the “degradation of the ecDHFR protein when both TMP-CANDDY_DMT and bortezomib were added” value on ecDHFR protein [9] (bortezomib co-added, compared with TMP-CANDDY_DMT alone) is “degradation of the ecDHFR protein was inhibited”. The “inhibitory activity against proteasome β5 (chymotrypsin-like activity)” value in [5] was “significantly lower proteasome inhibitory activity as compared with MG-132”. For the same compound, the “inhibitory activity against proteasome β2 (trypsin-like activity)” value in experiment [6] is listed as “significantly lower proteasome inhibitory activity as compared with MG-132”. The “inhibitory activity against proteasome β1 (caspase-like activity)” value in experiment [7] is listed as “significantly lower proteasome inhibitory activity as compared with MG-132”. Besides, the “degradation (knockdown) of the ecDHFR protein (shift of GFP/DsRed ratio graph)” value at ecDHFR protein [8] is given as “degradation of the ecDHFR protein was induced”.

Values taken from US11052154B2, “Ras protein degradation inducing molecule and pharmaceutical composition” (Tokyo University of Science Foundation, priority 2016, dated 2021).
